Target: T1, SIRT1 (Homo sapiens, UniProt Q96EB6)
T1 sequence (Q96EB6 1-747): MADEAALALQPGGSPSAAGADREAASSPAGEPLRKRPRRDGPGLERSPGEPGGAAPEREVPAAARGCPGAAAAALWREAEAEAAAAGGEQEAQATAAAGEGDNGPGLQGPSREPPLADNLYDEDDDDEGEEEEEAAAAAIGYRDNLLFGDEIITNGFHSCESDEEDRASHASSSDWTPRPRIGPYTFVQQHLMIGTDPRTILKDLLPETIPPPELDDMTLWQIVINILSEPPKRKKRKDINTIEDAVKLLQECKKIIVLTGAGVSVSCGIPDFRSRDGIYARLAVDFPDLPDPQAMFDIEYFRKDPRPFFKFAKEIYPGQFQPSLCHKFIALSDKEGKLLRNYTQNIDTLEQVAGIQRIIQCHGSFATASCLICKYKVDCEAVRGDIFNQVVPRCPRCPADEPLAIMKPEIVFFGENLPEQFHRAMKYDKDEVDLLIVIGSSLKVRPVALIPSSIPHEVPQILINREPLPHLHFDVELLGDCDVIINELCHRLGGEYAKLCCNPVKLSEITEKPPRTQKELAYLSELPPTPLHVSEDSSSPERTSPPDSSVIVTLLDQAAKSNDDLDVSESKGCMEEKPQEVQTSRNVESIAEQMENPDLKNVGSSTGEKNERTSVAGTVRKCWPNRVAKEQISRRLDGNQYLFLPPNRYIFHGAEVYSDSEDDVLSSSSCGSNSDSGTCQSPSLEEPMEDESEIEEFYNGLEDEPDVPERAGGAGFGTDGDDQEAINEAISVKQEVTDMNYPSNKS
Assay: SIRT1 mass spectrometry assay (screening for activation)
Type: biochemical
Conditions: for FOLD ACTIVATION MS: activation of SIRT1, mass spectrometry; for EC50: activation of SIRT1, 0.5 μM peptide substrate (SEQ ID NO: 34), 120 μM NAD+, 10 nM SIRT1, 25 min, read-out: ED50 MS ASSAY

Row | SMILES | FOLD ACTIVATION MS | EC50 [µM]
1 | CN(C)c1cccc(C(=O)Nc2cccc(-c3nc4ncccc4[nH]3)c2)c1 [compound 183] | A (Fold activation>250%) | 
2 | COc1ccc(C(=O)Nc2cccc(-c3nc4ncccc4[nH]3)c2)c(OC)c1 [compound 184] | B (Fold Activation<250%) | < 50
3 | COc1ccc(C(=O)Nc2cccc(-c3nc4cccnc4[nH]3)c2)cc1OC [compound 185] | A (Fold activation>250%) | < 50
4 | COc1cc(C)ccc1C(=O)Nc1ccc(-c2cc3cccnc3o2)cc1 [compound 187] | B (Fold Activation<250%) | 
5 | COc1ccc(C(=O)Nc2ccc(-c3cc4cccnc4o3)cc2)c(OC)c1 [compound 190] | B (Fold Activation<250%) | < 50
6 | COc1ccc(C(=O)Nc2cccc(-c3cc4cccnc4o3)c2)c(OC)c1 [compound 191] | B (Fold Activation<250%) | < 50
7 | COc1ccc(C(=O)Nc2cccc(-c3cc4cccnc4o3)c2)cc1OC [compound 192] | B (Fold Activation<250%) | 
8 | CN(C)c1cccc(C(=O)Nc2ccc(-c3nc4ncccc4s3)cc2)c1 [compound 196] | B (Fold Activation<250%) | 
9 | COc1ccc(C(=O)Nc2ccc(-c3nc4ncccc4s3)cc2)cc1OC [compound 197] | B (Fold Activation<250%) | < 50
10 | COc1ccc(C(=O)Nc2cccc(-c3nc4ncccc4s3)c2)c(OC)c1OC [compound 198] | B (Fold Activation<250%) | 
11 | COc1cc(C)ccc1C(=O)Nc1cccc(-c2nc3ncccc3s2)c1 [compound 199] | B (Fold Activation<250%) | < 50
12 | CN(C)c1cccc(C(=O)Nc2cccc(-c3nc4ncccc4s3)c2)c1 [compound 200] | B (Fold Activation<250%) | < 50
13 | COc1ccc(C(=O)Nc2cccc(-c3nc4ncccc4s3)c2)cc1OC [compound 201] | B (Fold Activation<250%) | 
14 | COc1ccc(C(=O)Nc2cccc(-c3nc4ncccc4s3)c2)c(OC)c1 [compound 202] | B (Fold Activation<250%) | < 50
15 | COc1ccc(C(=O)Nc2ccccc2-c2cn3ccsc3n2)cc1OC [compound 203] | B (Fold Activation<250%) | < 50
16 | COc1cc(C(=O)Nc2ccccc2-c2cn3ccsc3n2)cc(OC)c1OC [compound 204] | A (Fold activation>250%) | < 50
17 | COc1ccc(C(=O)Nc2ccccc2-c2cn3c(CN(C)C)csc3n2)cc1OC [compound 205] | A (Fold activation>250%) | 
18 | COc1cc(C(=O)Nc2ccccc2-c2cn3c(CN(C)C)csc3n2)cc(OC)c1OC [compound 206] | A (Fold activation>250%) | 
19 | COc1ccc(C(=O)Nc2ccccc2-c2cn3c(CN4CCNCC4)csc3n2)cc1OC [compound 207] | A (Fold activation>250%) | 
20 | COc1cc(C(=O)Nc2ccccc2-c2cn3c(CN4CCNCC4)csc3n2)cc(OC)c1OC [compound 208] | A (Fold activation>250%) | 
21 | COc1ccc(C(=O)Nc2ccccc2-c2cn3c(CN4CCOCC4)csc3n2)cc1OC [compound 209] | A (Fold activation>250%) | 
22 | COc1cc(C(=O)Nc2ccccc2-c2cn3c(CN4CCOCC4)csc3n2)cc(OC)c1OC [compound 210] | B (Fold Activation<250%) | 
23 | COc1ccc(C(=O)Nc2cccc(-c3nc4ccccc4[nH]3)c2)c(OC)c1 [compound 211] | B (Fold Activation<250%) | < 50
24 | COc1cccc(C(=O)Nc2cccc(-c3nc4cccnc4s3)c2)c1 [compound 212] | B (Fold Activation<250%) | 
25 | COc1ccc(C(=O)Nc2cccc(-c3nc4cccnc4s3)c2)c(OC)c1 [compound 213] | B (Fold Activation<250%) | < 50

Row | SMILES | FOLD ACTIVATION MS | EC50 [µM]
26 | COc1cccc(C(=O)Nc2cccc(-c3nc4cccnc4s3)c2)c1OC [compound 214] | B (Fold Activation<250%) | 
27 | COc1cc(OC)cc(C(=O)Nc2cccc(-c3nc4cccnc4s3)c2)c1 [compound 215] | B (Fold Activation<250%) | < 50
28 | COc1ccc(C(=O)Nc2cccc(-c3nc4cccnc4s3)c2)cc1 [compound 216] | B (Fold Activation<250%) | < 50
29 | COc1cc(C(=O)Nc2cccc(-c3nc4cccnc4s3)c2)cc(OC)c1OC [compound 217] | A (Fold activation>250%) | < 50
30 | COc1cc(C(=O)Nc2cccc(-c3cn4cccnc4n3)c2)cc(OC)c1OC [compound 218] | A (Fold activation>250%) | < 50
31 | COc1cc(C(=O)Nc2cccc(-c3nc4ncccn4c3C)c2)cc(OC)c1OC [compound 219] | A (Fold activation>250%) | 
32 | O=C(Nc1cccc(-c2nc3ccncc3s2)c1)c1ccco1 [compound 221] | B (Fold Activation<250%) | 
33 | O=C(Nc1cccc(-c2nc3ccncc3s2)c1)c1cccnc1Cl [compound 222] | B (Fold Activation<250%) | 
34 | O=C(Nc1cccc(-c2nc3ccncc3s2)c1)c1cccs1 [compound 223] | B (Fold Activation<250%) | < 50
35 | Cc1cc(C(=O)Nc2cccc(-c3nc4ccncc4s3)c2)n(C(C)(C)C)n1 [compound 228] | A (Fold activation>250%) | 
36 | O=C(Nc1cccc(-c2nc3ccncc3s2)c1)c1cnn(-c2ccccc2)c1C(F)(F)F [compound 238] | B (Fold Activation<250%) | < 50
37 | O=S(=O)(Nc1cccc(-c2nc3ccncc3s2)c1)c1ccc(OC(F)(F)F)cc1 [compound 239] | B (Fold Activation<250%) | < 50
38 | O=C(Nc1cccc(-c2nc3ccncc3s2)c1)c1ccc(-c2ccccc2)o1 [compound 241] | B (Fold Activation<250%) | < 50
39 | O=C(Nc1cccc(-c2nc3ccncc3s2)c1)c1ccccc1Oc1ccccc1 [compound 245] | B (Fold Activation<250%) | < 50
40 | Cn1nc(C(C)(C)C)cc1C(=O)Nc1cccc(-c2nc3ccncc3s2)c1 [compound 246] | B (Fold Activation<250%) | < 50
41 | O=C(Nc1cccc(-c2nc3ccncc3s2)c1)c1cc(C(F)(F)F)ccc1C(F)(F)F [compound 248] | B (Fold Activation<250%) | 
42 | COc1ccc(C(=O)Nc2ccccc2-c2cc3ccccc3[nH]2)cc1OC [compound 254] | B (Fold Activation<250%) | < 50
43 | COc1cc(C(=O)Nc2ccccc2-c2cc3ccccc3[nH]2)cc(OC)c1OC [compound 255] | B (Fold Activation<250%) | < 50
44 | COC(=O)c1ccc(-n2cncn2)c(NC(=O)c2ccc(OC)c(OC)c2)c1 [compound 258] | B (Fold Activation<250%) | 
45 | COc1cc(C(=O)Nc2cccc(-c3nc4ccccc4[nH]3)n2)cc(OC)c1OC [compound 259] | A (Fold activation>250%) | < 50
46 | COc1ccc(C(=O)Nc2cccc(-c3nc4ccccc4[nH]3)n2)cc1OC [compound 260] | A (Fold activation>250%) | < 50
47 | COc1cccc(C(=O)Nc2cccc(-c3nc4ccccc4[nH]3)n2)c1 [compound 261] | A (Fold activation>250%) | < 50
48 | COc1ccc(C(=O)Nc2ccc(-c3nc4ccccc4[nH]3)cc2)c(OC)c1 [compound 262] | B (Fold Activation<250%) | < 50
49 | COc1cc(C(=O)Nc2ccc(-c3nc4ccccc4[nH]3)cc2)cc(OC)c1OC [compound 263] | B (Fold Activation<250%) | 
50 | CN(C)c1cccc(C(=O)Nc2ccc(-c3cc4ccccc4[nH]3)cc2)c1 [compound 264] | B (Fold Activation<250%) | < 50
